Reference: patent publication US8877707B2, “Inhibitors of HCV NS5A” (Presidio Pharmaceuticals, Inc., priority 2010, dated 2014)

Each compound was assayed on HCV genotype 1b replicon in Huh 7 cells (assay: HCV replicon assay (1b_Huh-Luc/Neo-ET cell line, luciferase readout)). Details: Hepatitis C virus; Table 1; genotype 1b replicon, Huh 7 cells, 72 h, luciferase; read-out: Inhibition of HCV genotype 1b.
Type: cell-based
In short: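 Replicon level was read as luciferase signal after 72 h compound exposure, triplicate wells, starting the day after cells were plated. Cell line: 1b_Huh-Luc/Neo-ET. Values normalised to control as percent, and EC50 fitted with a variable-slope sigmoid; determinations repeated.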
With COC(=O)N[C@H](C(=O)N1CCC[C@H]1c1ncc(-c2ccc(-c3nc4cc(-c5cnc([C@@H]6CCCN6C(=O)[C@@H](NC(=O)OC)C(C)C)[nH]5)ccc4s3)cc2)[nH]1)C(C)C [compound 240] the EC50 was < 1 nM. For COC(=O)N[C@H](C(=O)N1CCC[C@H]1c1ncc(-c2ccc(-c3nc4ccc(-c5cnc([C@@H]6CCCN6C(=O)[C@H](NC(=O)OC)c6ccccc6)[nH]5)cc4s3)cc2)[nH]1)C(C)C [compound 241], the EC50 was < 1 nM. For COC(=O)N[C@H](C(=O)N1CCC[C@H]1c1ncc(-c2ccc(-c3nc4ccc(-c5cnc([C@@H]6CCCN6C(=O)[C@H](NC(=O)OC(C)(C)C)c6ccccc6)[nH]5)cc4s3)cc2)[nH]1)C(C)C [compound 242], the EC50 was < 1 nM. COC(=O)N[C@H](C(=O)N1CCCC[C@H]1c1ncc(-c2ccc(-c3nc4ccc(-c5cnc([C@@H]6CCCCN6C(=O)[C@@H](NC(=O)OC)C(C)C)[nH]5)cc4s3)cc2)[nH]1)C(C)C [compound 243] was tested, and the EC50 was < 1 nM. With CCNC(=O)N[C@@H](C(=O)N1CCC[C@H]1c1ncc(-c2ccc3nc(-c4ccc(-c5cnc([C@@H]6CCCN6C(=O)[C@@H](NC(=O)OC)C(C)C)[nH]5)cc4)sc3c2)[nH]1)c1ccccc1 [compound 244] the EC50 was < 1 nM. With CNC(=O)N[C@@H](C(=O)N1CCC[C@H]1c1ncc(-c2ccc3nc(-c4ccc(-c5cnc([C@@H]6CCCN6C(=O)[C@@H](NC(=O)OC)C(C)C)[nH]5)cc4)sc3c2)[nH]1)c1ccccc1 [compound 245] the EC50 was < 1 nM. In the case of COC(=O)N[C@H](C(=O)N1CCC[C@H]1c1ncc(-c2ccc(-c3nc4ccc(-c5cnc([C@@H]6CCCN6C(=O)OCc6ccccc6)[nH]5)cc4s3)cc2)[nH]1)C(C)C [compound 246], the EC50 is reported as < 1 nM. For COC(=O)N[C@H](C(=O)N1CCC[C@H]1c1ncc(-c2ccc(-c3nc4ccc(-c5cnc([C@@H]6CCCN6C(=O)[C@H](NC(=O)OC(C)(C)C)c6ccccc6)[nH]5)cc4o3)cc2)[nH]1)C(C)C [compound 247], the EC50 was < 1 nM. With COC(=O)N[C@@H](C(=O)N1CCCC[C@H]1c1ncc(-c2ccc(-c3nc4ccc(-c5cnc([C@@H]6CCCCN6C(=O)[C@H](NC(=O)OC)c6ccccc6)[nH]5)cc4s3)cc2)[nH]1)c1ccccc1 [compound 248] the EC50 was < 1 nM. In the case of COC(=O)N[C@H](C(=O)N1CCC[C@H]1c1ncc(-c2ccc(-c3nc4ccc(-c5cnc([C@@H]6CCCN6C(=O)[C@H](NC(=O)OC)c6ccccc6)[nH]5)cc4o3)cc2)[nH]1)C(C)C [compound 249], the EC50 is reported as < 1 nM. Compound CC(C)(C)OC(=O)N1CCCC1c1ncc(-c2ccc(-c3nc4cc(-c5cnc([C@@H]6CCCN6C(=O)OCc6ccccc6)[nH]5)ccc4s3)cc2)[nH]1 (stereo partly drawn) [compound 250] has an EC50 of 10 to 999 nM. With CNC(=O)N[C@@H](C(=O)N1CCC[C@H]1c1ncc(-c2ccc3nc(-c4ccc(-c5cnc([C@@H]6CCCN6C(=O)[C@@H](NC(=O)OC)C(C)C)[nH]5)cc4)oc3c2)[nH]1)c1ccccc1 [compound 251] the EC50 was < 1 nM. In the case of CCNC(=O)N[C@@H](C(=O)N1CCC[C@H]1c1ncc(-c2ccc3nc(-c4ccc(-c5cnc([C@@H]6CCCN6C(=O)[C@@H](NC(=O)OC)C(C)C)[nH]5)cc4)oc3c2)[nH]1)c1ccccc1 [compound 252], the EC50 is reported as < 1 nM. COC(=O)N[C@H](C(=O)N1CCC[C@H]1c1ncc(-c2ccc(-c3nc4ccc(-c5cnc([C@@H]6CCCN6C(=O)[C@@H](NC(=O)OC)[C@@H](C)OC)[nH]5)cc4o3)cc2)[nH]1)C(C)C [compound 253] was tested, and the EC50 was < 1 nM. With COC(=O)N[C@H](C(=O)N1CCC[C@H]1c1ncc(-c2ccc3nc(-c4ccc(-c5cnc([C@@H]6CCCN6C(=O)[C@H](NC(=O)OC(C)(C)C)c6ccccc6)[nH]5)cc4)oc3c2)[nH]1)C(C)C [compound 254] the EC50 was < 1 nM. In the case of COC(=O)N[C@H](C(=O)N1CCC[C@H]1c1ncc(-c2ccc3nc(-c4ccc(-c5cnc([C@@H]6CCCN6C(=O)[C@H](NC(=O)OC)c6ccccc6)[nH]5)cc4)oc3c2)[nH]1)C(C)C [compound 255], the EC50 is reported as < 1 nM. With CNC(=O)N[C@@H](C(=O)N1CCC[C@H]1c1ncc(-c2ccc(-c3nc4ccc(-c5cnc([C@@H]6CCCN6C(=O)[C@@H](NC(=O)OC)C(C)C)[nH]5)cc4o3)cc2)[nH]1)c1ccccc1 [compound 256] the EC50 was < 1 nM. CCNC(=O)N[C@@H](C(=O)N1CCC[C@H]1c1ncc(-c2ccc(-c3nc4ccc(-c5cnc([C@@H]6CCCN6C(=O)[C@@H](NC(=O)OC)C(C)C)[nH]5)cc4o3)cc2)[nH]1)c1ccccc1 [compound 257] was tested, and the EC50 was < 1 nM. For COC(=O)N[C@H](C(=O)N1CCC[C@H]1c1ncc(-c2ccc(-c3ccc4nc(-c5cnc([C@@H]6CCCN6C(=O)[C@@H](NC(=O)OC)C(C)C)[nH]5)sc4c3)cc2)[nH]1)C(C)C [compound 258], the EC50 was < 1 nM. With COC(=O)N[C@H](C(=O)N1CCC[C@H]1c1ncc(-c2ccc3oc(-c4ccc(-c5cnc([C@@H]6CCCN6C(=O)[C@@H](NC(=O)OC)C6CCOCC6)[nH]5)cc4)nc3c2)[nH]1)C(C)C [compound 259] the EC50 was < 1 nM. In the case of COC(=O)N[C@H](C(=O)N1CCC[C@H]1c1ncc(-c2ccc3oc(-c4ccc(-c5cnc([C@@H]6CCCN6C(=O)[C@H](NC(=O)OC)c6ccccc6)[nH]5)cc4)nc3c2)[nH]1)C(C)C [compound 260], the EC50 is reported as < 1 nM. With COC(=O)N[C@H](C(=O)N1CCC[C@H]1c1ncc(-c2ccc3ccc(C45CCC(c6cnc([C@@H]7CCCN7C(=O)[C@@H](NC(=O)OC)C(C)C)[nH]6)(CC4)CC5)cc3c2)[nH]1)C(C)C [compound 261] the EC50 was 1 to 9.9 nM. In the case of COC(=O)N[C@H](C(=O)N1CCC[C@H]1c1nc(-c2ccc3nc(C45CCC(c6cnc([C@@H]7CCCN7C(=O)[C@@H](NC(=O)OC)C(C)C)[nH]6)(CC4)CC5)ccc3c2)c[nH]1)C(C)C [compound 262], the EC50 is reported as < 1 nM. With COC(=O)N[C@@H](C(=O)N1CCC[C@H]1c1nc(-c2ccc3nc(C45CCC(c6cnc([C@@H]7CCCN7C(=O)[C@H](NC(=O)OC)c7ccccc7)[nH]6)(CC4)CC5)ccc3c2)c[nH]1)c1ccccc1 [compound 263] the EC50 was < 1 nM. With CN(C)[C@@H](C(=O)N1CCC[C@H]1c1nc(-c2ccc3nc(C45CCC(c6cnc([C@@H]7CCCN7C(=O)[C@@H](c7ccccc7)N(C)C)[nH]6)(CC4)CC5)ccc3c2)c[nH]1)c1ccccc1 [compound 264] the EC50 was 1 to 9.9 nM. For COC(=O)N[C@H](C(=O)N1CCC[C@H]1c1nc(-c2ccc3nc(C45CCC(c6cnc([C@@H]7CCCN7C(=O)[C@@H](NC(=O)OC)C7CC7)[nH]6)(CC4)CC5)ccc3c2)c[nH]1)C1CC1 [compound 265], the EC50 was < 1 nM. In the case of COC(=O)N[C@@H](C)C(=O)N1CCC[C@H]1c1nc(-c2ccc3nc(C45CCC(c6cnc([C@@H]7CCCN7C(=O)[C@H](C)NC(=O)OC)[nH]6)(CC4)CC5)ccc3c2)c[nH]1 [compound 266], the EC50 is reported as < 1 nM. c1cc2nc(C34CCC(c5cnc([C@@H]6CCCN6)[nH]5)(CC3)CC4)ccc2cc1-c1c[nH]c([C@@H]2CCCN2)n1 [compound 267] was tested, and the EC50 was > 1000 nM. CC(C)(C)OC(=O)N1CCCC1c1ncc(C23CCC(c4ccc5cc(-c6c[nH]c([C@@H]7CCCN7C(=O)OC(C)(C)C)n6)ccc5n4)(CC2)CC3)[nH]1 (stereo partly drawn) [compound 268] was tested, and the EC50 was 10 to 999 nM. COC(=O)N[C@H](C(=O)N1CCC[C@H]1c1nc(-c2ccc3c(c2)CCN(c2c(F)cc(-c4cnc([C@@H]5CCCN5C(=O)[C@@H](NC(=O)OC)C(C)C)[nH]4)cc2F)C3)c[nH]1)C(C)C [compound 269] was tested, and the EC50 was < 1 nM. COC(=O)N[C@@H](C(=O)N1CCC[C@H]1c1nc(-c2ccc3c(c2)CCN(c2c(F)cc(-c4cnc([C@@H]5CCCN5C(=O)[C@H](NC(=O)OC)c5ccccc5)[nH]4)cc2F)C3)c[nH]1)c1ccccc1 [compound 270] was tested, and the EC50 was < 1 nM. For COC(=O)N[C@H](C(=O)N1CCC[C@H]1c1nc(-c2ccc3c(c2)CCN(c2c(F)cc(-c4cnc([C@@H]5CCCN5C(=O)[C@@H](NC(=O)OC)C5CC5)[nH]4)cc2F)C3)c[nH]1)C1CC1 [compound 271], the EC50 was < 1 nM. In the case of COC(=O)N[C@@H](C)C(=O)N1CCC[C@H]1c1nc(-c2ccc3c(c2)CCN(c2c(F)cc(-c4cnc([C@@H]5CCCN5C(=O)[C@H](C)NC(=O)OC)[nH]4)cc2F)C3)c[nH]1 [compound 272], the EC50 is reported as < 1 nM. Compound COC(=O)N[C@@H](C)C(=O)N1CCC[C@H]1c1nc(-c2ccc3nc(N4CCC(c5cnc([C@@H]6CCCN6C(=O)[C@H](C)NC(=O)OC)[nH]5)CC4)ccc3c2)c[nH]1 [compound 273] has an EC50 of 1 to 9.9 nM. With COC(=O)N[C@H](C(=O)N1CCC[C@H]1c1nc(-c2ccc3nc(N4CCC(c5cnc([C@@H]6CCCN6C(=O)[C@@H](NC(=O)OC)C6CC6)[nH]5)CC4)ccc3c2)c[nH]1)C1CC1 [compound 274] the EC50 was 1 to 9.9 nM. With COC(=O)N[C@H](C(=O)N1CCC[C@H]1c1nc(-c2ccc3nc(N4CCC(c5cnc([C@@H]6CCCN6C(=O)[C@@H](NC(=O)OC)C(C)C)[nH]5)CC4)ccc3c2)c[nH]1)C(C)C [compound 275] the EC50 was < 1 nM. In the case of COC(=O)N[C@H](C(=O)N1CCC[C@H]1c1nc2ccc(-c3ccc4cc(-c5ccc6nc([C@@H]7CCCN7C(=O)[C@@H](NC(=O)OC)C(C)C)[nH]c6c5)ccc4c3)cc2[nH]1)C(C)C [compound 276], the EC50 is reported as < 1 nM. With COC(=O)N[C@H](C(=O)N1CCC[C@H]1c1nc2ccc(-c3cccc4c(-c5ccc6nc([C@@H]7CCCN7C(=O)[C@@H](NC(=O)OC)C(C)C)[nH]c6c5)cccc34)cc2[nH]1)C(C)C [compound 277] the EC50 was < 1 nM. For COC(=O)N[C@@H](C)C(=O)N1CCC[C@H]1c1nc2ccc(-c3ccc4cc(-c5ccc6nc([C@@H]7CCCN7C(=O)[C@H](C)NC(=O)OC)[nH]c6c5)ccc4c3)cc2[nH]1 [compound 278], the EC50 was < 1 nM. For COC(=O)N[C@H](C(=O)N1CCC[C@H]1c1nc2ccc(-c3ccc4cc(-c5ccc6nc([C@@H]7CCCN7C(=O)[C@@H](NC(=O)OC)C7CCOCC7)[nH]c6c5)ccc4c3)cc2[nH]1)C1CCOCC1 [compound 279], the EC50 was < 1 nM. COC(=O)N[C@H](C(=O)N1CCC[C@H]1c1nc2ccc(-c3ccc4nc(-c5ccc6nc([C@@H]7CCCN7C(=O)[C@@H](NC(=O)OC)C(C)C)[nH]c6c5)ccc4c3)cc2[nH]1)C(C)C [compound 280] was tested, and the EC50 was < 1 nM. In the case of COC(=O)N[C@H](C(=O)N1CCC[C@H]1c1nc2ccc(-c3ccc4cc(-c5ccc6nc([C@@H]7CCCN7C(=O)[C@@H](NC(=O)OC)C(C)C)[nH]c6c5)ncc4c3)cc2[nH]1)C(C)C [compound 281], the EC50 is reported as < 1 nM.
